Data reported in patent US10857105B2, “Compounds and compositions for intracellular delivery of therapeutic agents” (ModernaTX, Inc., priority 2017, dated 2020).

Assays:
modified luciferase = experiment: Luciferase expression in liver, lung, spleen and femur 6 hours after intravenous administration to mice; type: in vivo; details: for Total Flux, Femur / Total Flux, Liver / Total Flux, Lung / Total Flux, Spleen: 6 hours after intravenous 0.5 mpk, mice
How it was run: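 Mice (n=3) got a single 0.5 mpk IV dose of each nanoparticle composition, with MC3 and PBS controls alongside. Organ luminescence flux was read 6 h post-dose.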

IL-6, IP-10 = experiment: Cytokine induction (IL-6, IP-10) in mice 6 hours after intravenous administration; type: in vivo; set-up: unit not given here; details: intravenous 0.5 mpk
Source text: The introduction of foreign material into a mammalian body induces an innate immune response that promotes cytokine production. Such immune responses to, for example, nanoparticle compositions including therapeutic and/or prophylactics, are undesirable. The induction of certain cytokines is thus measured to evaluate the […] of nanoparticle compositions. The concentrations of various cytokines in mice upon intravenous administration of nanoparticle compositions presented in Table 1A at a dosage of 0.5 mpk was measured at 6 hours. The standard MC3 formulation and a PBS control were also tested. As is evident in Table 7, IL-6 induction was highest for compositions including Compounds 1, 3, 9, 19, and 26, while IP-10 induction was highest for compositions including Compounds 3, 4, 7, 20, and 26. IL-6 induction was lowest for compositions including Compounds 4, 11, 12, and 28. IP-10 induction was lowest for compositions including Compounds 10, 11, 12, 13, 15, 17, and 18.

luciferase (Luc) mRNA [1] = experiment: Luciferase expression (whole body bioluminescence) after intravenous administration to mice; type: in vivo; details: intravenous; for Novel lipid/MC3 expression ratio, i.v.: luciferase, 6 hr. time point, relative to MC3 formulation
Experimental: In order to monitor how effectively various nanoparticle compositions deliver therapeutic and/or prophylactics to targeted cells, different nanparticle compositions including a particular therapeutic and/or prophylactic (for example, a modified or naturally occurring RNA such as an mRNA) are prepared and administered to rodent populations. Mice are intravenously, intramuscularly, intraarterially, or intratumorally administered a single dose including a nanoparticle composition with a formulation such as those provided in Example 3. In some instances, mice may be made to inhale doses. Dose sizes may range from 0.001 mg/kg to 10 mg/kg, where 10 mg/kg describes a dose including 10 mg of a therapeutic and/or, prophylactic in a nanoparticle composition for each 1 kg of body mass of the mouse. A control composition including PBS may also be employed.
Upon administration of nanoparticle compositions to mice, dose delivery profiles, dose responses, and toxicity of particular formulations and doses thereof can be measured by enzyme-linked immunosorbent assays (ELISA), bioluminescent imaging, or other methods. For nanoparticle compositions including mRNA, time courses of protein expression can also be evaluated. Samples collected from the rodents for evaluation may include blood, sera, and tissue (for example, muscle tissue from the site of an intramuscular injection and internal tissue); sample collection may involve sacrifice of the animals.
The efficacy of the nanoparticle compositions presented in Table 1A was evaluated with a bioluminescence study. Formulations were administered intravenously to mice (n=6) at a dosage of 0.5 mg/kg (mpk) and bioluminescence measured at 3, 6, and 24 hour time points. The standard MC3 formulation and, in some instances, a control (e.g., a PBS control) were evaluated for comparison. […] In general, flux decreased as time progressed to less than 10% of the initial flux.
(§1) The total flux (measured by area under the curve, AUC) induced by administration of a formulation including a given lipid relative to that induced by administration of a formulation including MC3 was also measured for several lipids.

[2] = Particle size and polydispersity index of nanoparticle compositions (Zetasizer Nano ZS); type: physicochemical
How it was run: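 Formulations of ionizable lipid, DSPC, cholesterol and PEG-DMG (50:10:38.5:1.5 mol %) carrying Luc or hEPO mRNA with all uridines as N1-methyl pseudouridine. Dynamic light scattering in 1×PBS gave particle size and polydispersity; zeta potential read in 15 mM PBS.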

luciferase (Luc) mRNA [3] = experiment: Luciferase expression after intramuscular administration to mice; type: in vivo; details: Luc mRNA, intramuscular, 0.01 mpk, 6 hours
Source text: The numbers 1-7 in this figure correspond to MC3, Compounds 168-170, and 173-175 respectively.
FIGS. 18A and 18B show the results of luciferase expression measured upon intramuscular administration of various nanoparticle compositions to CD-1 mice at 0.01 mpk. FIG. 18A is a bar graph showing total flux at 6 hr after administration. The numbers above each bar indicate the expression ratio relative to MC3. […] Numbers 1-11 in the Figures refer to compositions containing the following: 1: MC3, 2: Compound 143, 3: Compound 49; 4: Compound 113; 5: Compound 61; 6: Compound 72; 7: Compound 75; 8: Compound 71; 9: Compound 128; 10: Compound 156; 11: Compound 157.
The numbers 1-9 in this figure correspond to MC3, and Compounds 178, 181, 182, 218, 198, 200, 233, and 239, respectively.
as §1
Sample formulations including modified luciferase (Luc) mRNA prepared and administered intramuscularly and the resulting expression and immunogenicity were evaluated simultaneously. Formulations including compounds according to Formula (I), (IA), (IB), (II), (IIa), (IIb), (IIc), (IId), (IIe), (IIf), (IIg), or (III) were prepared and administered at dose of and 0.01 mpk.

[4] = Encapsulation efficiency of RNA in nanoparticle compositions (RIBOGREEN assay); type: physicochemical
How it was run: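 Lipid nanoparticles (ionisable lipid:DSPC:cholesterol:PEG-DMG 50:10:38.5:1.5 mol %) carrying N1-methylpseudouridine luciferase or hEPO mRNA diluted to about 5 μg/mL in TE, pH 7.5, with or without 2% Triton X-100, 15 min at 37° C. RiboGreen fluorescence (ex ~480, em ~520 nm) blank-subtracted; free RNA = intact/disrupted signal.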

hEPO mRNA = experiment: hEPO expression after intravenous administration to rats; type: in vivo, rat; details: Table 19B; for [hEPO] Lipid/MC3: ratio to MC3
Experimental: The expression of hEPO and cytokine induction in rats intravenously administered a nanoparticle composition at a dose of 2.0 mpk was measured at 6 h.
The expression of hEPO in rats intravenously administered a nanoparticle composition at a dose of 0.2 mpk or 2.0 mpk was measured at 6 hours. Table 16 summarize the ratio of hEPO expression levels using various nanoparticle compositions as compared to the hEPO expression level using MC3 formulation and the lipid levels in the liver measured 48 hours after administration, as described above. Tables 17 and 18 summarize the lipid levels in the liver and spleen measured 48 hours after administration of Compounds 28, 33, 53, and 54. Liver and spleen levels represent the average values calculated for 3 rats in each group. As is shown in Tables 17 and 18, less than 10% of Compounds 28, 33, 53, and 54 remained in the liver after 48 hours, while greater than 60% of MC3 remained.
Table 19A summarizes the hEPO expression, IP-10 induction, liver and spleen levels, and alanine aminotransferase (ALT) and aspartate aminotransferase (AST) measured upon intravenous administration of formulations including Compounds 48, 49, and 50 to rat at 0.2 and 2 mpk and hEPO mRNA. hEPO concentrations were measured 6 hours after administration, while cytokine induction and liver and spleen levels were measured 48 hours after administration. hEPO and IP-10 concentrations are presented in pg/ml, while liver levels are provided in ng/g. ALT and AST levels are presented in international units.
The expression of hEPO induced by intravenous administration to rats of nanoparticle compositions at various doses was measured at 2, 4, 6, 8, 24, and 48 hour time points. FIGS. 3-6 respectively summarize the hEPO expression measured upon intravenous administration of formulations including Compounds 26, 18, 25, and MC3 to rat at various doses. The lipid levels of Compound 26 in the liver after 48 hours were about 19%.
The expression of hEPO and lipid levels in the liver and spleen in rats intravenously administered a nanoparticle composition at a dose of 0.2 mpk was measured at various time points. Compounds 18 and 25 were selected for comparison with MC3. Lipids were formulated according to the standard MC3 formulation described above. Rats were administered intravenously a single 0.2 mpk dose and expression monitored at 0.25, 0.5, 1, 2, 4, 8, 24, and 48 hours after administration.

[5] = Table 1A, lipid:DSPC:cholesterol:PEG-DMG 50:10:38.5:1.5 mol %
[6] = Table 1B, formulated with hEPO mRNA

Row | Structure (SMILES) | Cytokine induction, IL-6 (IL-6, IP-10) | Cytokine induction, IP-10 (IL-6, IP-10) | Size [2, 5] [nm] | EE [4, 5] [%] | EE [4, 6] [%] | Size [2, 6] [nm] | Total Flux, Femur (modified luciferase) | Total Flux, Liver (modified luciferase) | Total Flux, Lung (modified luciferase) | Total Flux, Spleen (modified luciferase) | Total flux 6 hours after intramuscular administration, 0.01 mpk Dose (luciferase (Luc) mRNA [3]) [p/s] | [hEPO] Lipid/MC3 (hEPO mRNA) | also measured
1 | CCCCCCCCCOC(=O)CCCCCCCN(CCCN)CCCCCCCC(=O)OC(CCCCCCCC)CCCCCCCC [Compound 121, Heptadecan-9-yl 8-((3-aminopropyl)(8-(nonyloxy)-8-oxooctyl)amino)octanoate] | – | – | – | – | – | – | – | – | – | – | 1.06E+06 | – | –
2 | CCCCCCCCCOC(=O)CCCCCCCN(C)CCCCCCCC(=O)OC(CCCCCCCC)CCCCCCCC [Compound 123, Heptadecan-9-yl 8-(methyl(8-(nonyloxy)-8-oxooctyl)amino)octanoate] | – | – | – | – | – | – | – | 2.50E+08 | 1.78E+06 | 4.04E+06 | 1.08E+07 | – | –
3 | CCCCCCCCCCCCN(CCO)CCCCCCCCCCCC(=O)OC [Compound 137, Methyl 12-(dodecyl(2-hydroxyethyl)amino)dodecanoate] | 130.82 | 234.35 | – | 85.7 | – | – | 2.02E+04 | 6.48E+04 | 1.66E+04 | 1.32E+05 | – | – | Flux in the liver (modified luciferase; mice (n=3), intravenous, 0.5 mpk, 6 hours): lowest; Flux at all timepoints measured (luciferase (Luc) mRNA [1]; mice, 0.5 mg/kg, 3, 6 and 24 hours): significantly lower flux; PDI [2, 5]: <1
4 | CCCCCCCCCOC(=O)CCCCCCCN(CCO)CCCCCCCC(=O)N(CCCCCCCC)CCCCCCCC [Compound 144, Nonyl 8-((8-(dioctylamino)-8-oxooctyl)(2-hydroxyethyl)amino)octanoate] | 319.46 | 4220.55 | 135.9 | 90.3 | – | – | 2.44E+06 | 3.75E+08 | 4.81E+06 | 5.11E+07 | – | – | –
5 | CCCCCCCCCOC(=O)CCCCCCCN(CCO)CCCCCC(=O)OC1CCC(CCCCC)CC1 (stereo not drawn) [Compound 232, Nonyl 8-((2-hydroxyethyl)(6-oxo-6-((4-pentylcyclohexyl)oxy)hexyl)amino)octanoate] | – | – | – | – | 76.3 | 150.3 | – | – | – | – | – | 0.83 | –

Continued, in another order:

Row | Cytokine induction, IL-6 (IL-6, IP-10) | Cytokine induction, IP-10 (IL-6, IP-10) | Size [2, 5] [nm] | EE [4, 5] [%] | EE [4, 6] [%] | Size [2, 6] [nm] | Structure (SMILES) | Total Flux, Femur (modified luciferase) | Total Flux, Liver (modified luciferase) | Total Flux, Lung (modified luciferase) | Total Flux, Spleen (modified luciferase) | Total flux 6 hours after intramuscular administration, 0.01 mpk Dose (luciferase (Luc) mRNA [3]) [p/s] | [hEPO] Lipid/MC3 (hEPO mRNA) | also measured
6 | 285.56 | 1468.94 | 101.1 | – | – | – | CCCCCCCCCOC(=O)CCCCCCCN(CCCO)CCCCCCCC(=O)OC(CCCCCCCC)CCCCCCCC [Compound 19, Heptadecan-9-yl 8-((3-hydroxypropyl)(8-(nonyloxy)-8-oxooctyl)amino) octanoate] | 1.68E+06 | 6.33E+08 | 5.99E+06 | 1.77E+07 | – | – | Novel lipid/MC3 expression ratio, i.v. (luciferase (Luc) mRNA [1]): 0.96; Size ([2]; Table 1E, compositions for subcutaneous administration): 80.7 nm
7 | – | – | 65.1 | – | – | – | CCCCCCCCCOC(=O)CCCCCCCN(CCCCCCCC(=O)OC(CCCCCCCC)CCCCCCCC)CCCn1ccc(=O)[nH]c1=O [Compound 114, Heptadecan-9-yl 8-((3-(2,4-dioxo-3,4-dihydropyrimidin-1(2H)-yl)propyl)(8-(nonyloxy)-8-oxooctyl)amino)octanoate] | – | – | – | – | 3.31E+06 | – | –
8 | 6.245 | 209.63 | 98.8 | 97.37 | – | – | CCCCCCCCCOC(=O)CCCCCCCN(CCO)CCCCCCC(=O)OCC(CCCCCCCC)CCCCCCCC [Compound 143, Nonyl 8-((2-hydroxyethyl)(7-((2-octyldecyl)oxy)-7-oxoheptyl)amino)octanoate] | – | 1.76E+09 | 3.60E+07 | 1.42E+08 | – | – | Novel lipid/MC3 expression ratio, i.v. (luciferase (Luc) mRNA [1]): 0.44
9 | – | – | – | – | 93.9 | 95.5 | CCCCCCCCC(CCCCCCCC)OC(=O)CCCCCCCN(CCO)CCCCCCCCCC(=O)OCCCCCCC [Compound 189, Heptyl 10-((8-(heptadecan-9-yloxy)-8-oxooctyl)(2-hydroxyethyl)amino)decanoate] | – | – | – | – | – | 3.01E+06 | –
10 | – | – | 76.2 | 97.65 | 97.3 | 95.3 | CCCCCCCCCOC(=O)CCCCCCCN(CCCCCCCC(=O)OC(CCCCCCCC)CCCCCCCC)CCCN/C(=N/[N+](=O)[O-])NC [Compound 200, Heptadecan-9-yl (E)-8-((3-(3-methyl-2-nitroguanidino)propyl)(8-(nonyloxy)-8-oxooctyl)amino)octanoate] | – | – | – | – | – | 1.72E+06 | hEPO AUC (hEPO mRNA): 2.4e+07 pg·h/mL
